What was measured:
[1] = biological target: T1, Recombinant human His6-USP1/His6-UAF1 complex protein (Homo sapiens, UniProt O94782); assay: In vitro inhibitory activity against USP1 (Ubiquitin Rhodamine 110 fluorescence detection, 384-well plate); format: biochemical; details: Ub-Rho substrate, 1 hour pre-incubation, read after 30 minutes
T1 construct: His6; purchased R&D E-568-050
Procedure, shortened: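 Compounds, kept as 50 mM DMSO stocks, were acoustically dispensed into modified Tris buffer. Inhibition of recombinant human His6-USP1/His6-UAF1 was read by fluorescence from cleavage of Ub-Rho110 substrate.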

MDA-MB-436 = assay: CTG experiment for cell viability (CellTiter-Glo, 96-well plate, 7 days); format: cell-based; details: Homo sapiens, MDA-MB-436, 168 h, MDA-MB-436 cells, 7 days culture with compound
Procedure, shortened: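 Viability was read by CellTiter-Glo luminescence after 10 min at room temperature, once the compound-containing medium had been replaced with PBS. Before that, MDA-MB-436 cells grown in DMEM were exposed to compounds for 7 days at 37°C. Curve fitting followed the enzyme assay method.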

T1 sequence (O94782 whole entry): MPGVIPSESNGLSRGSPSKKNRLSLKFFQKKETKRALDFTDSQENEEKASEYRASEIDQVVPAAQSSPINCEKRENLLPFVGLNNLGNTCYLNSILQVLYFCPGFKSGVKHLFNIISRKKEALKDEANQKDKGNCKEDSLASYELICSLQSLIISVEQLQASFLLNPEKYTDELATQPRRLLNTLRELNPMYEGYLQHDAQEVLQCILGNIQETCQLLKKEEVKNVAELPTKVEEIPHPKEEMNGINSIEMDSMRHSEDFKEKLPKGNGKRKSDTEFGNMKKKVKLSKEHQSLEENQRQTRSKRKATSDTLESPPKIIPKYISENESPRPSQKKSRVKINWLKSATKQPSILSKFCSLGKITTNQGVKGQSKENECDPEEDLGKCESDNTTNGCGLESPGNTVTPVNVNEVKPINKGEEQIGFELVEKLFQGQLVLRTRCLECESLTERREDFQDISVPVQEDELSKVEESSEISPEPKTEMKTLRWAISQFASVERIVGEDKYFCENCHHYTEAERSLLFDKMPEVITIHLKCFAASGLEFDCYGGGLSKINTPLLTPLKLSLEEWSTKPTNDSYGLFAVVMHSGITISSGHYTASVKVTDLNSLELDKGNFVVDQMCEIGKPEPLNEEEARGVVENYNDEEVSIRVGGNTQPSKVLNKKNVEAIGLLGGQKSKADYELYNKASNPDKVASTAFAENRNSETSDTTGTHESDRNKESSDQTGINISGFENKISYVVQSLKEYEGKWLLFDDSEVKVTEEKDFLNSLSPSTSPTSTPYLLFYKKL
T1 sequence (Q8TAF3 whole entry partner): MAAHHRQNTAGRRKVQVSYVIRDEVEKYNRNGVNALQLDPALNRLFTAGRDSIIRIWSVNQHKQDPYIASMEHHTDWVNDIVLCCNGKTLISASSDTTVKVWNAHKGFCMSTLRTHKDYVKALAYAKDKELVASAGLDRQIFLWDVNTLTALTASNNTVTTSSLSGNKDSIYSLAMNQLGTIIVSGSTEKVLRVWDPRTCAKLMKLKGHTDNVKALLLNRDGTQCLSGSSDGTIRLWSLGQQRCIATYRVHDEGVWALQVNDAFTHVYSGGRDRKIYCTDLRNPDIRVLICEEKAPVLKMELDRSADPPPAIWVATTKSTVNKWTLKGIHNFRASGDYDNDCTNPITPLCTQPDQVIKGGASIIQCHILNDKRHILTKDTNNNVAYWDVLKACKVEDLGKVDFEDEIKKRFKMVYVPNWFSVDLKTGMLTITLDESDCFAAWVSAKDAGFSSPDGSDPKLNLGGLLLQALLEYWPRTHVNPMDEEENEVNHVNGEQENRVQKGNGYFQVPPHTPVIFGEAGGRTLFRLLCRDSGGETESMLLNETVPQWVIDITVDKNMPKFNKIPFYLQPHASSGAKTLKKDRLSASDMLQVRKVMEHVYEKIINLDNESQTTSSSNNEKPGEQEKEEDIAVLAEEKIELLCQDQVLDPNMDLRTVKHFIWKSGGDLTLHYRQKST

| Structure (SMILES) | IC50 [1] | IC50 (MDA-MB-436) |
| --- | --- | --- |
| COc1cnc(-c2c(OC)ncnc2C2CC2)nc1N(C)C[C@H]1CC[C@H](c2nc(C(F)(F)F)cn2C(C)C)CC1 [Example S26, 4'-Cyclopropyl-N-(((1R,4R)-4-(1-isopropyl-4-(trifluoromethyl)-1H-imidazol-2-yl)cyclohexyl)methyl)-5,6'-dimethoxy-N-methyl-[2,5'-bipyrimidin]-4-amine] | 0.013 µM | 0.0143 µM |
| [2H]C([2H])([2H])Oc1ncnc(C2CC2)c1-c1ncc(OC)c(NCC23CCC(c4nc(C(F)(F)F)cn4C)(CC2)CC3)n1 [Example S5, 4'-Cyclopropyl-5-methoxy-6'-(methoxy-D3)-N-((4-(1-methyl-4-(trifluoromethyl)-1H-imidazol-2-yl)bicyclo[2.2.2]oct-1-yl)methyl)-[2,5'-bipyrimidin]-4-amine] | 0.014 µM | 0.0202 µM |
| Cc1noc(C(C)C)c1-c1ncc(OC(F)F)c(NCc2ccc(-c3nc(C(F)(F)F)cn3C)cc2)n1 [Example 190, 5-(Difluoromethoxy)-2-(5-isopropyl-3-methylisoxazol-4-yl)-N-(4-(1-methyl-4-(trifluoromethyl)-1H-imidazol-2-yl)benzyl)pyrimidin-4-amine] | 0.033 µM | 0.339 µM |
| COc1cnc(-c2c(C)cnn2C(C)C)nc1N(C)Cc1ccc(-n2nc(C(F)(F)F)cc2C)cc1 [Example 201, 2-(1-Isopropyl-4-methyl-1H-pyrazol-5-yl)-5-methoxy-N-methyl-N-(4-(5-methyl-3-(trifluoromethyl)-1H-pyrazol-1-yl)benzyl)pyrimidin-4-amine] | 0.012 µM | 0.0405 µM |
| COc1cnc(-c2cncnc2C2CC2)nc1NCc1ccc(-c2nc(C(F)(F)F)cn2C)cc1 [Example 194, 4'-Cyclopropyl-5-methoxy-N-(4-(1-methyl-4-(trifluoromethyl)-1H-imidazol-2-yl)benzyl)-[2,5'-bipyrimidin]-4-amine] | 0.051 µM | 0.0584 µM |
| Cc1noc(C(C)C)c1-c1nc(NCc2ccc(-c3ccccn3)cc2)c2occc2n1 [Example 189, 2-(5-Isopropyl-3-methylisoxazol-4-yl)-N-(4-(pyridin-2-yl)benzyl)furo[3,2-d]pyrimidin-4-amine] | 0.016 µM | 0.307 µM |
| COc1ncnc(C2CC2)c1-c1nc(NCc2ccc(-c3nc(C(F)F)cn3C)cc2)c2occc2n1 [Example 123, 2-(4-Cyclopropyl-6-methoxypyrimidin-5-yl)-N-(4-(4-(difluoromethyl)-1-methyl-1H-imidazol-2-yl)benzyl)furo[3,2-d]pyrimidin-4-amine] | 0.02 µM | 0.169 µM |
| COc1cnc(-c2ccccc2C(C)C)nc1NCC12CCC(c3ccc(C(F)(F)F)cn3)(CC1)CC2 [Example 23, 2-(2-Isopropylphenyl)-5-methoxy-N-((4-(5-(trifluoromethyl)pyridin-2-yl)bicyclo[2.2.2]octan-1-yl)methyl)pyrimidin-4-amine] | 0.033 µM | 0.0331 µM |
| COc1cnc(-c2c(OC)ncnc2C(F)(F)F)nc1N(C)C[C@H]1CC[C@H](c2nc(C(F)(F)F)cn2C(C)C)CC1 [Example S37, N-(((1R,4R)-4-(1-isopropyl-4-(trifluoromethyl)-1H-imidazol-2-yl)cyclohexyl)methyl)-4',5-dimethoxy-N-methyl-6'-(trifluoromethyl)-[2,5'-bipyrimidin]-4-amine] | 0.012 µM | 0.0326 µM |
| COc1cnc(-c2c(OC)ncnc2C2CC2)nc1NCc1ccc(-c2nc(C(F)(F)F)cn2CF)cc1 [Example 107, 4'-Cyclopropyl-N-(4-(1-(fluoromethyl)-4-(trifluoromethyl)-1H-imidazol-2-yl)benzyl)-5,6'-dimethoxy-[2,5'-bipyrimidin]-4-amine] | 0.016 µM | 0.0175 µM |
| COc1cnc(-c2ccccc2C(C)C)nc1NCC1CCN(c2ccccn2)CC1 [Example 5, 2-(2-Isopropylphenyl)-5-methoxy-N-((1-(pyridin-2-yl)piperidin-4-yl)methyl)pyrimidin-4-amine] | 0.0076 µM | 0.113 µM |
| [2H]C([2H])([2H])Oc1ncnc(C2CC2)c1-c1ncc(OC)c(N(C[C@H]2CC[C@H](c3nc(C(F)(F)F)cn3C)CC2)C([2H])([2H])[2H])n1 [Example S24, 4'-Cyclopropyl-5-methoxy-6'-(methoxy-D3)-N-(methyl-D3)-N(((1R,4R)-4-(1-methyl-4-(trifluoromethyl)-1H-imidazol-2-yl)cyclohexyl)methyl)-[2,5'-bipyrimidin]-4-amine] | 0.0057 µM | 0.0046 µM |
| COc1cc(-c2nc(C(F)(F)F)cn2C)ccc1CNc1nc(-c2c(OC)ncnc2C2CC2)ncc1OC(F)F [Example 136, 4'-Cyclopropyl-5-(difluoromethoxy)-6'-methoxy-N-(2-methoxy-4-(1-methyl-4-(trifluoromethyl)-1H-imidazol-2-yl)benzyl)-[2,5'-bipyrimidin]-4-amine] | 0.017 µM | 0.0249 µM |
| [2H]C([2H])([2H])N(C[C@H]1CC[C@H](c2nc(C(F)(F)F)cn2C2CC2)CC1)c1nc(-c2c(OC)ncnc2C2CC2)ncc1OC [Example S23, 4'-Cyclopropyl-N-(((1R,4R)-4-(1-cyclopropyl-4-(trifluoromethyl)-1H-imidazol-2-yl)cyclohexyl)methyl)-5,6'-dimethoxy-N-(methyl-D3)-[2,5'-bipyrimidin]-4-amine] | 0.0048 µM | 0.0001 µM |
| CC(C)Oc1cnc(-c2ccccc2C(C)C)nc1N(C)CC1CCN(c2nc(C(F)(F)F)cn2C)CC1 [Example 70, 5-Isopropoxy-2-(2-isopropylphenyl)-N-methyl-N-((1-(1-methyl-4-(trifluoromethyl)-1H-imidazol-2-yl)piperidin-4-yl)methyl)pyrimidin-4-amine] | 0.0194 µM | 0.6 µM |
| COc1cnc(-c2c(Cl)cnn2C(C)C)nc1N(C)CC12CCC(c3nc(C(F)(F)F)cn3C3CCC3)(CC1)OC2 [Example S12, 2-(4-Chloro-1-isopropyl-1H-pyrazol-5-yl)-N-((1-(1-cyclobutyl-4-(trifluoromethyl)-1H-imidazol-2-yl)-2-oxabicyclo[2.2.2]oct-4-yl)methyl)-5-methoxy-N-methylpyrimidin-4-amine] | 0.035 µM | 0.168 µM |
| COc1cnc(-c2c(OC)ncnc2C2CC2)nc1NCC12CCC(c3nc(C(F)(F)F)cn3C)(CC1)OC2 [Example 210] | 0.085 µM | 0.169 µM |

Compounds with a lower IC50 [1], results first:

| IC50 [1] | IC50 (MDA-MB-436) | Structure (SMILES) |
| --- | --- | --- |
| 0.0011 µM | 0.0008 µM | COc1cnc(-c2c(Cl)cnn2C(C)C)nc1NCc1ccc(-c2nc(C(F)(F)F)cn2C)cc1 [Example 164, 2-(4-Chloro-1-isopropyl-1H-pyrazol-5-yl)-5-methoxy-N-(4-(1-methyl-4-(trifluoromethyl)-1H-imidazol-2-yl)benzyl)pyrimidin-4-amine] |
| 0.0032 µM | 0.267 µM | CCOCCOc1ccc(CNc2nc(-c3ccccc3C(C)C)ncc2OC)cc1 [Example 68, N-(4-(2-Ethoxyethoxy)benzyl)-2-(2-isopropylphenyl)-5-methoxypyrimidin-4-amine] |
| 0.0012 µM | 0.0035 µM | COc1cnc(-c2cccnc2C(C)C)nc1NCC12C3C4C1C1C2C3C41c1nc(C(F)(F)F)cn1C (stereo not drawn) [Example S42, 2-(2-isopropylpyridin-3-yl)-5-methoxy-N-((4-(1-methyl-4-(trifluoromethyl)-1H-imidazol-2-yl)cuban-1-yl)methyl)pyrimidin-4-amine] |
| 0.0037 µM | 0.331 µM | CC(C)c1ccccc1-c1ncc(C(F)(F)F)c(NCC2CCN(c3nc(C(F)(F)F)cn3C)CC2)n1 [Example 75, 2-(2-Isopropylphenyl)-N-((1-(1-methyl-4-(trifluoromethyl)-1H-imidazol-2-yl)piperidin-4-yl)methyl)-5-(trifluoromethyl)pyrimidin-4-amine] |
| 0.00047 µM | 0.0225 µM | C#Cc1cnc(-c2ccccc2C(C)C)nc1NCc1ccc(-c2nc(C(F)(F)F)cn2C)cc1 [Example 85, 5-Ethynyl-2-(2-isopropylphenyl)-N-(4-(1-methyl-4-(trifluoromethyl)-1H-imidazol-2-yl)benzyl)pyrimidin-4-amine] |
| 0.0014 µM | 0.0071 µM | COc1cnc(-c2c(Cl)cnn2C(C)C)nc1NCc1ccc(-n2nc(C(F)(F)F)cc2C)cc1 [Example 165, 2-(4-Chloro-1-isopropyl-1H-pyrazol-5-yl)-5-methoxy-N-(4-(5-methyl-3-(trifluoromethyl)-1H-pyrazol-1-yl)benzyl)pyrimidin-4-amine] |
| 0.0034 µM | 0.0254 µM | COc1cnc(-c2cccnc2C2CC2)nc1NCc1ccc(-c2nc(C(F)(F)F)cn2C)cc1 [Example 153, 2-(2-Cyclopropylpyridin-3-yl)-5-methoxy-N-(4-(1-methyl-4-(trifluoromethyl)-1H-imidazol-2-yl)benzyl)pyrimidin-4-amine] |
| 0.0029 µM | 0.0145 µM | COc1cnc(-c2ccccc2C2CC2)nc1NCc1ccc(-n2nc(C(F)(F)F)cc2C)cc1 [Example 170, 2-(2-Cyclopropylphenyl)-5-methoxy-N-(4-(5-methyl-3-(trifluoromethyl)-1H-pyrazol-1-yl)benzyl)pyrimidin-4-amine] |
| 0.0017 µM | 0.278 µM | COc1cc(CNc2nc(-c3ccccc3C(C)C)nc3ccoc23)ccc1-c1nc(C(F)(F)F)cn1C [Example 82, 2-(2-Isopropylphenyl)-N-(3-methoxy-4-(1-methyl-4-(trifluoromethyl)-1H-imidazol-2-yl)benzyl)furo[3,2-d]pyrimidin-4-amine] |
| 0.0045 µM | 0.102 µM | COc1cnc(-c2ccccc2C(C)C)nc1NCc1ccc(-n2nc(C(F)(F)F)cc2C)cc1 [Example 7, 2-(2-Isopropylphenyl)-5-methoxy-N-(4-(5-methyl-3-(trifluoromethyl)-1H-pyrazol-1-yl)benzyl)pyrimidin-4-amine] |

Reference: EP4741386A1 (Jiangsu Yahong Meditech Co., Ltd., priority 2023, dated 2025)
